Reference: ChEMBL document CHEMBL4507293 (2021)

Legend:
Details in all cases: Compound concentration 10.0 uM
[1] = target: Nociceptin receptor (Homo sapiens) (UniProt P41146); experiment: Orphanin ORL1 Eurofins-Panlabs radioligand binding assay
[2] = target: Glutamate receptor ionotropic, kainate (Rattus norvegicus) (UniProt P22756+Q01812+P42260+P42264+Q63273); experiment: Inhibition of Glutamate, Kainate at 10 µM in the Eurofins-Panlabs radioligand binding assay (Eurofins_assay_232700)
[3] = target: Prostaglandin F2-alpha receptor (Homo sapiens) (UniProt P43088); experiment: Prostanoid FP Eurofins-Panlabs radioligand binding assay; design: ligand concentration 0.95 nM
Sequence of Prostaglandin F2-alpha receptor (Homo sapiens) (P43088 whole entry): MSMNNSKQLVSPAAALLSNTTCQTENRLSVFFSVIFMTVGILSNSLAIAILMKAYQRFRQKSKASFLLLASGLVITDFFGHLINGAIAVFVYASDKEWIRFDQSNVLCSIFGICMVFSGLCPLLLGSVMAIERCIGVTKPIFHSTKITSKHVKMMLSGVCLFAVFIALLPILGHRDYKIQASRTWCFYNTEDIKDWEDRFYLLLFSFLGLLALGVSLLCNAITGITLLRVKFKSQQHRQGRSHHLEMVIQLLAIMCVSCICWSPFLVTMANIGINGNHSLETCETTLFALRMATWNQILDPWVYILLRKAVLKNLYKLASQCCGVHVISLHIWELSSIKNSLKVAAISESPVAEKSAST

[4] = target: Neuropeptide Y receptor type 2 (Homo sapiens) (UniProt P49146); experiment: Inhibition of Neuropeptide Y Y2 at 10 µM in the Eurofins-Panlabs radioligand binding assay (Eurofins_assay_257110)
Sequence of Neuropeptide Y receptor type 2 (Homo sapiens) (P49146 whole entry): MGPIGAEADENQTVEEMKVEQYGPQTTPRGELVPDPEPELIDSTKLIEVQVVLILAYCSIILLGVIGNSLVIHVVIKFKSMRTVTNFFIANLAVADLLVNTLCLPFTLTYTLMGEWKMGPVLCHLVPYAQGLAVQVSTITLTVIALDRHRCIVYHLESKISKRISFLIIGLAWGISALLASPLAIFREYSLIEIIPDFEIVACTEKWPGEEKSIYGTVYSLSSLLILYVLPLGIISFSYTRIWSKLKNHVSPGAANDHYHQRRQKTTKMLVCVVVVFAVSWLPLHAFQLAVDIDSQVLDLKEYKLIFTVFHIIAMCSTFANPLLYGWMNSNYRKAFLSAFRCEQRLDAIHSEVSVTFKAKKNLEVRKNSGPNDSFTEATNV

Measured: inhibition

Sequence of Nociceptin receptor (Homo sapiens) (P41146 whole entry): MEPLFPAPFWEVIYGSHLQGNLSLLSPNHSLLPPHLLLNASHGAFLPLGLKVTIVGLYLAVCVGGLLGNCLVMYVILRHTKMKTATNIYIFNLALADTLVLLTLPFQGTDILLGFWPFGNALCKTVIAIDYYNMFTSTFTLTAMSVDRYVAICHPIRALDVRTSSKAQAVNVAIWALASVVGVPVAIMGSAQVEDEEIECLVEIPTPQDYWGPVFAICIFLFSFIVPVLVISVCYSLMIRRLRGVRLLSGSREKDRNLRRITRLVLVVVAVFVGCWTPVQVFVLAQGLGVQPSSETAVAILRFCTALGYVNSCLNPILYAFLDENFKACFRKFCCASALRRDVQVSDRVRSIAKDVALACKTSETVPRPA

COCCOc1nc(-c2ccc(Cl)nc2)nc2c1CN(C(=O)c1ncn3ccccc13)CC2 [THPP-1]
inactive: [1] 5% | [2] 9% | [3] 22% | [4] 1%
